Where a name gives a salt, the structure may show the parent alone.
Tested on: primordial-to-primary follicle transition
Assay: In vitro organ culture of mouse ovaries with compound, H&E histology and counting of primordial, primary and secondary follicles
Description: Ovaries obtained from mice were washed twice with culture medium. Antagonists or agonists to be tested were dissolved in suitable solvents and added to the medium. As a control medium comprising solvent without the antagonist or agonist was used. One of the ovaries was cultured in a control medium and another was cultured with the antagonist or agonist. The tested antagonists or agonists and their concentrations are outlined in table 2.
Ovaries were incubated with antagonist at 37° C. and 5% CO2 for 24 and 96 hours, respectively (see table 3).
Cultures ovaries were fixed, embedded in paraffin and sliced microscopy. The sectioned ovaries were stained with hematoxylin and eosin (H&E) to visualize the morphology of the ovary by microscopy.
The number of primordial, primary and secondary follicles was determined, and it was determined whether the antagonist or agonist was capable of regulating folliculogenesis.
C57BL/6j×CBA F1 hybrid mice (Janvier Labs, France) were housed and bred in the animal facilities at Department of Biomedicine, Aarhus University. Animals were housed in a 12:12 h controlled light-dark environment and were provided with food and water ad libitum. 7-day-old female pups were used for the study.
Pups were sacrificed and ovaries were excised. Using a stereomicroscope MZ75 (Leica Microsystems, Germany), excess tissue was removed. During the dissection, ovaries were kept at 37° C. in culture medium: aMEM (Thermo Fisher) supplemented with 10% FBS (Thermo Fisher), 100 mIU/mL of FSH (Sigma-Aldrich), 100 IU/mL penicillin (Thermo Fisher), 100 μg/mL streptomycin (Thermo Fisher) and 1% Insulin-Transferrin-Selenium (Thermo Fisher). Isolated ovaries were transferred into well inserts (PET membrane ThinCert, 0.4 μm-pore size; Greiner bio-one) in 24-well plates (Tissue culture treated, cell culture plates; Costar). 200-300 μL of culture medium was added to the well below the insert and up to two ovaries were placed on the membrane of each insert. The culture medium was supplemented with different concentrations of the tested compounds; bpV(HOpic) (Sigma-Aldrich), Temsirolimus (Sigma-Aldrich), Ketotifen (Sigma-Aldrich), 3PO (Sigma-Aldrich), Dorsomorphin (Sigma-Aldrich), AICAR (Sigma-Aldrich), NCG (Sigma-Aldrich), and Dyphylline (Cayman Chemical). Up to six wells in the 24-well plate were used for inserts. Sterile dH2O was added to the rest of the wells to ensure humidity and reduce evaporation. The ovaries were cultured at 37° C., 5% CO2 for four days. 150 μL of medium was replaced every other day with fresh culture medium.
Ovaries kept in organ culture for four days were fixed for 24 hours in 4% paraformaldehyde solution at 4° C. After fixation, ovaries were dehydrated in ethanol series using 70%, 96% and 99.9% ethanol. Xylene was used as clearing agent before the ovaries were infiltrated in paraffin wax. 5 μm-sections of samples in paraffin were cut using a microtome (Cut 6062, SLEE medical, Germany). Paraffin sections were mounted on glass slides, paraffin was melted at 60° C., and the samples were stained with hematoxylin and eosin (using standard protocols).
The samples were deparaffinized by incubating in xylene for 2×15 min. and subsequently rehydrated in series of ethanol; 3×2 min. in 99.9% ethanol, 2 min. in 96% ethanol, and 2 min. in 70% ethanol. The samples were then rinsed in dH2O, stained in hematoxylin for 40 sec., rinsed in dH2O for 5 min., and stained in eosin for 46 sec. The samples were dehydrated in ethanol: 2×2 min. in 96% ethanol, 2×2 min in 99.9% ethanol, and finally cleared up in xylene for at least 30 min before mounting the samples using Eukitt mounting medium (Sigma-Aldrich) and cover glass.
The number of follicles at each developmental stage was counted using an inverted research microscope (DM14000B, Leica Microsystems, Germany). The follicles of every 3rd to 4th section of each ovary were counted and the distribution of follicles in the different stages in percentage was determined.

[1] = Table 1, effect with a figure cited
[2] = Table 2, effect with a figure cited
[3] = 1.0 μM Trigonellin hydrochloride, 96 hours

Row | Molecule | Effect (Table 1, marked (ongoing)) | Effect (Table 2, marked (ongoing)) | further results
1 | COC(=O)C1=C(C)NC(C)=C([N+](=O)[O-])C1c1ccccc1C(F)(F)F (stereo not drawn) [BAY 1217389, methyl 2,6-dimethyl-5-nitro-4-[2-(trifluoromethyl)phenyl]-1,4-dihydropyridine-3-carboxylate] | promotes | promotes | –
2 | OCCN(CCO)c1nc(N2CCCCC2)c2nc(N(CCO)CCO)nc(N3CCCCC3)c2n1 [Dipyridamole, 2-[[2-[bis(2-hydroxyethyl)amino]-4,8-di(piperidin-1-yl)pyrimido[5,4-d]pyrimidin-6-yl]-(2-hydroxyethyl)amino]ethanol] | promotes | promotes | –
3 | CCOc1cc(C(C)(C)C)ccc1C1=N[C@@](C)(c2ccc(Cl)cc2)[C@@](C)(c2ccc(Cl)cc2)N1C(=O)N1CCN(CCCS(C)(=O)=O)CC1 [RO5045337, [(4S,5R)-2-(4-tert-butyl-2-ethoxyphenyl)-4,5-bis(4-chlorophenyl)-4,5-dimethylimidazol-1-yl]-[4-(3-methylsulfonylpropyl)piperazin-1-yl]methanone] | promotes | promotes | –
4 | CNC(=O)c1cc(Oc2ccc(NC(=O)Nc3ccc(Cl)c(C(F)(F)F)c3)cc2)ccn1 [BIIB022, 4-[4-[[4-chloro-3-(trifluoromethyl)phenyl]carbamoylamino]phenoxy]-N-methyl-pyridine-2-carboxamide] | promotes | promotes | –
5 | CC1(C)CCC2(CC1)N[C@@H](C(=O)N[C@@H]1CC[C@@H](C(N)=O)OC1)[C@H](c1ccnc(Cl)c1F)[C@]21C(=O)Nc2cc(Cl)ccc21.Cc1ccc(S(=O)(=O)O)cc1 [DS-3032b, L-Erythro-hexonamide, 2,6-anhydro-5-((((3′R,4'S,5′R)-6″-chloro-4′-(2-chloro-3-fluoro-4-pyridinyl)-1″,2″-dihydro-4,4-dimethyl-2″-oxodispiro(cyclohexane-1,2′-pyrrolidine-3′,3″-(3H)indol)-5′-yl)carbonyl)amino)-3,4,5-trideoxy-, 4-methylbenzenesulfon] | promotes | promotes | –
6 | O=C(O)c1cc(N(Cc2ccccc2O)Cc2cc(O)ccc2O)ccc1O [Lavendustin, 5-amino-((N-2,5-dihydroxybenzyl)-N′-2-hydroxybenzyl)aminosalicylic acid] | promotes | promotes | –
7 | CN1CCC(=C2c3ccccc3CC(=O)c3sccc32)CC1 [Ketotifen, 4,9-dihydro-4-(1-methyl-4-piper-idylidende)-10H-benzo(4,5)cyclohepta(1,2,b)thiophen-10-one] | – | – | less primary follicles than control (85 nM Ketotifen, 96 hours): ~44%; less secondary follicles than control (85 nM Ketotifen, 96 hours): ~65%; more primordial follicles than control (85 nM Ketotifen, 96 hours): approximately 9%; Effect [1]: inhibits follicle; Effect [2]: inhibits follicle; effect on primordial-to-primary follicle transition / primordial follicle activation (in vitro cultured mouse ovaries, concentration not given): significantly more primordial follicles
8 | CCOc1cc2ncc(C#N)c(Nc3ccc(OCc4ccccn4)c(Cl)c3)c2cc1NC(=O)/C=C/CN(C)C [AVE1642, (E)-N-[4-[3-chloro-4-(pyridin-2-ylmethoxy)anilino]-3-cyano-7-ethoxyquinolin-6-yl]-4-(dimethylamino)but-2-enamide] | promotes | promotes | –
9 | CS(=O)(=O)N1CCN(Cc2cc3nc(-c4cccc5[nH]ncc45)nc(N4CCOCC4)c3s2)CC1 [Pictilisib, 2-(1H-indazol-4-yl)-6-(4-methanesulfonylpiperazin-1-ylmethyl)-4-morpholin-4-ylthieno(3,2-d)pyrimidine] | promotes | promotes | –
10 | COc1cc(C(=O)O)ccc1NC(=O)[C@@H]1N[C@@H](CC(C)(C)C)[C@](C#N)(c2ccc(Cl)cc2F)[C@H]1c1cccc(Cl)c1F [Idasanutlin, 4-{[(3S,4R,5S)-3-(3-Chloro-2-fluorophenyl)-4-(4-chloro-2-fluorophenyl)-4-cyano-5-(2,2-dimethylpropyl)-D-prolyl]amino}-3-methoxybenzoic acid] | promotes | promotes | –
11 | CCOc1cc2ncc(C#N)c(Nc3ccc(F)c(Cl)c3)c2cc1NC(=O)/C=C/CN(C)C [Pelitinib, (E)-N-[4-(3-chloro-4-fluoroanilino)-3-cyano-7-ethoxyquinolin-6-yl]-4-(dimethylamino)but-2-enamide] | promotes | promotes | –
12 | CN(C)C(=N)N=C(N)N [Metformin, N,N-Dimethylimiddicarbonimiddiamid] | promotes | promotes | –
13 | Cc1cn(-c2cc(NC(=O)c3ccc(C)c(Nc4nccc(-c5cccnc5)n4)c3)cc(C(F)(F)F)c2)cn1 [Pirotinib, 4-methyl-N-[3-(4-methylimidazol-1-yl)-5-(trifluoromethyl)phenyl]-3-[(4-pyridin-3-ylpyrimidin-2-yl)amino]benzamide] | promotes | promotes | –
14 | C=CC(=O)N1CCC(Oc2cc3c(Nc4ccc(Cl)c(Cl)c4F)ncnc3cc2OC)CC1 [Poziotinib, 1-[4-[4-(3,4-dichloro-2-fluoroanilino)-7-methoxyquinazolin-6-yl]oxypiperidin-1-yl]prop-2-en-1-one] | promotes | promotes | –
15 | NC(=O)N[C@@H](CCC(=O)O)C(=O)O [NCG, (2S)-2-(carbamoylamino)pentanedioic acid] | – | – | effect on follicle distribution (10, 20 and 30 μM NCG, 96 hours): has the potential to activate primordial follicle distribution; Effect [1]: promotesfollicle; Effect [2]: promotesfollicle
16 | CCN1[C@@H](C(=O)NC23CCC(C(=O)O)(CC2)CC3)[C@H](c2cccc(Cl)c2F)[C@]2(C(=O)Nc3cc(Cl)ccc32)C12CCCCC2 [APG-115] | promotes | promotes | –
17 | C[C@H]1Cc2ccccc2N1C(=O)Cc1nc(N2CCOCC2)cc(=O)[nH]1 [SAR260301, (S)-2-(2-(2-Methylindolin-1-yl)-2-oxoethyl)-6-morpholinopyrimidin-4(3H)-one] | promotes | promotes | –
18 | PDGF-AA: peptide, expressed in E coli, SEQ ID NO: 1, binds and activates PDGFRA | promotes | promotes | –
19 | COc1cc(N2CCC(N3CCN(C)CC3)CC2)ccc1Nc1nc2c(c(Nc3ccccc3S(=O)(=O)NC(C)C)n1)CCN2 [CT-707] | promotes | promotes | –
20 | C[n+]1cccc(C(=O)[O-])c1 [Trigonellin hydrochloride] | – | – | decrease in the average numbers of primordial follicles compared to the control [3]: ~20%; increase compared to the control (follicle stage not given) [3]: ~74%
21 | CC(C)c1cc(CNc2nc(Nc3cc(C4CC4)[nH]n3)cc(N3CCN(C)CC3)n2)on1 [XL228, 4-N-(5-cyclopropyl-1H-pyrazol-3-yl)-6-(4-methylpiperazin-1-yl)-2-N-[(3-propan-2-yl-1,2-oxazol-5-yl)methyl]pyrimidine-2,4-diamine] | promotes | promotes | –
22 | c1ccc2c(CCNc3ccc(Nc4ccncc4)cc3)c[nH]c2c1 [Serdemetan, 1-N-[2-(1H-indol-3-yl)ethyl]-4-N-pyridin-4-ylbenzene-1,4-diamine] | promotes | promotes | –
23 | Nc1cc(C(F)(F)F)c(-c2cc(N3CCOCC3)nc(N3CCOCC3)n2)cn1 [Buparlisib, 5-(2,6-dimorpholinopyrimidin-4-yl)-4-(trifluoromethyl)pyridin-2-amine] | promotes | promotes | –
